US20230085307A1, “PYRIDAZINONE COMPOUND AND HERBICIDE” (NISSAN CHEMICAL CORPORATION, priority 2019, published 2023)

Experiments:
barnyard grass [1] = experiment: Test Example 3: herbicidal effect by foliage application, Wagner pot (Table 18, symbol H); format: in vivo, barnyard grass (Echinochloa crus-galli); settings: for herbicidal effect on H: barnyard grass: amount of applied herbicide 320 g/ha
Method in brief: (§1)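 Plants were sown in alluvial soil held under 0.1–0.5 cm standing water and grown 14 days in a greenhouse at 25–30 °C. An emulsifiable formulation, water-diluted to the set dose, was then sprayed onto the foliage, and effects were scored three weeks later using previously defined criteria.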

Chinese sprangletop = experiment: Test Example 3: herbicidal effect by foliage application, Wagner pot (Table 18, symbol D); format: in vivo, chinese sprangletop (Leptochloa chinensis); settings: for herbicidal effect on D: Chinese sprangletop: amount of applied herbicide 320 g/ha
Method in brief: as §1

rice flat sedge = experiment: Test Example 3: herbicidal effect by foliage application, Wagner pot (Table 18, symbol E); format: in vivo, rice flat sedge (Cyperus iria); settings: for herbicidal effect on E: rice flat sedge: amount of applied herbicide 320 g/ha
Method in brief: as §1

southern crabgrass [2] = experiment: Test Example 4: herbicidal effect by soil treatment (Table 19, symbol F); format: in vivo, southern crabgrass (Digitaria ciliaris); settings: for herbicidal effect, F: southern crabgrass: amount of applied herbicide 320 g/ha
Method in brief: (§2)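 Pre-emergence style soil spray: seeds under ~1.5 cm sterilized diluvial soil received a uniform coat of emulsion diluted to the predetermined herbicide amount. Greenhouse 25–30° C; readout at week three on previously defined criteria.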

green foxtail [3] = experiment: Test Example 4: herbicidal effect by soil treatment (Table 19, symbol G); format: in vivo, green foxtail (Setaria viridis); settings: for herbicidal effect, G: green foxtail: amount of applied herbicide 320 g/ha
Method in brief: as §2

barnyard grass [4] = experiment: Test Example 4: herbicidal effect by soil treatment (Table 19, symbol H); format: in vivo, barnyard grass (Echinochloa crus-galli); settings: for herbicidal effect, H: barnyard grass: amount of applied herbicide 320 g/ha
Method in brief: as §2

wild oat [5] = experiment: Test Example 4: herbicidal effect by soil treatment (Table 19, symbol I); format: in vivo, wild oat (Avena fatua); settings: for herbicidal effect, I: wild oat: amount of applied herbicide 320 g/ha
Method in brief: as §2

blackgrass [6] = experiment: Test Example 4: herbicidal effect by soil treatment (Table 19, symbol J); format: in vivo, blackgrass (Alopecurus myosuroides); settings: for herbicidal effect, J: blackgrass: amount of applied herbicide 320 g/ha
Method in brief: as §2

Italian ryegrass [7] = experiment: Test Example 4: herbicidal effect by soil treatment (Table 19, symbol K); format: in vivo, Italian ryegrass (Lolium multiflorum); settings: for herbicidal effect, K: Italian ryegrass: amount of applied herbicide 320 g/ha
Method in brief: as §2

windgrass [8] = experiment: Test Example 4: herbicidal effect by soil treatment (Table 19, symbol L); format: in vivo, windgrass (Apera spica-venti); settings: for herbicidal effect, L: windgrass: amount of applied herbicide 320 g/ha
Method in brief: as §2

velvetleaf [9] = experiment: Test Example 4: herbicidal effect by soil treatment (Table 19, symbol M); format: in vivo, velvetleaf (Abutilon theophrasti); settings: for herbicidal effect, M: velvetleaf: amount of applied herbicide 320 g/ha
Method in brief: as §2

redroot pigweed = experiment: Test Example 4: herbicidal effect by soil treatment (Table 19, symbol N); format: in vivo, redroot pigweed (Amaranthus retroflexus); settings: for herbicidal effect, N: redroot pigweed: amount of applied herbicide 320 g/ha
Method in brief: as §2

lambsquarters [10] = experiment: Test Example 4: herbicidal effect by soil treatment (Table 19, symbol O); format: in vivo, lambsquarters (Chenopodium album); settings: for herbicidal effect, O: lambsquarters: amount of applied herbicide 320 g/ha
Method in brief: as §2

chickweed = experiment: Test Example 4: herbicidal effect by soil treatment (Table 19, symbol P); format: in vivo, common chickweed (Stellaria media); settings: for herbicidal effect, P: chickweed: amount of applied herbicide 320 g/ha
Method in brief: as §2

persian speedwell [11] = experiment: Test Example 4: herbicidal effect by soil treatment (Table 19, symbol R); format: in vivo, Persian speedwell (Veronica persica); settings: for herbicidal effect, R: persian speedwell: amount of applied herbicide 320 g/ha
Method in brief: as §2

southern crabgrass [12] = experiment: Test Example 5: herbicidal effect by foliage application, plastic box (Table 20, symbol F); format: in vivo, southern crabgrass (Digitaria ciliaris); settings: foliage application, 320 g/ha, 3 weeks after application
Method in brief: (§3)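 Plants were sown into sterilized diluvial soil under about 1.5 cm cover and kept in a greenhouse at 25° C. to 30° C. Fourteen days on, foliage received an even spray of the diluted emulsion. Herbicidal or crop effect was judged three weeks afterwards.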

green foxtail [13] = experiment: Test Example 5: herbicidal effect by foliage application, plastic box (Table 20, symbol G); format: in vivo, green foxtail (Setaria viridis); settings: foliage application, 320 g/ha, 3 weeks after application
Method in brief: as §3

barnyard grass [14] = experiment: Test Example 5: herbicidal effect by foliage application, plastic box (Table 20, symbol H); format: in vivo, barnyard grass (Echinochloa crus-galli); settings: foliage application, 320 g/ha, 3 weeks after application
Method in brief: as §3

wild oat [15] = experiment: Test Example 5: herbicidal effect by foliage application, plastic box (Table 20, symbol I); format: in vivo, wild oat (Avena fatua); settings: foliage application, 320 g/ha, 3 weeks after application
Method in brief: as §3

blackgrass [16] = experiment: Test Example 5: herbicidal effect by foliage application, plastic box (Table 20, symbol J); format: in vivo, blackgrass (Alopecurus myosuroides); settings: foliage application, 320 g/ha, 3 weeks after application
Method in brief: as §3

Italian ryegrass [17] = experiment: Test Example 5: herbicidal effect by foliage application, plastic box (Table 20, symbol K); format: in vivo, Italian ryegrass (Lolium multiflorum); settings: foliage application, 320 g/ha, 3 weeks after application
Method in brief: as §3

windgrass [18] = experiment: Test Example 5: herbicidal effect by foliage application, plastic box (Table 20, symbol L); format: in vivo, windgrass (Apera spica-venti); settings: foliage application, 320 g/ha, 3 weeks after application
Method in brief: as §3

velvetleaf [19] = experiment: Test Example 5: herbicidal effect by foliage application, plastic box (Table 20, symbol M); format: in vivo, velvetleaf (Abutilon theophrasti); settings: foliage application, 320 g/ha, 3 weeks after application
Method in brief: as §3

lambsquarters [20] = experiment: Test Example 5: herbicidal effect by foliage application, plastic box (Table 20, symbol O); format: in vivo, lambsquarters (Chenopodium album); settings: foliage application, 320 g/ha, 3 weeks after application
Method in brief: as §3

persian speedwell [21] = experiment: Test Example 5: herbicidal effect by foliage application, plastic box (Table 20, symbol R); format: in vivo, Persian speedwell (Veronica persica); settings: foliage application, 320 g/ha, 3 weeks after application
Method in brief: as §3

## CCCC(=O)Oc1c(OC)nn(C)c(=O)c1-c1c(-c2cc3ccccc3s2)sc2ccccc12 [1-197]
Barnyard grass [1]; 320 g/ha
  herbicidal effect on H (barnyard grass), rating 0-5: 4 (Herbicidal rate of 70% or more and less than 90%)
Chinese sprangletop; 320 g/ha
  herbicidal effect on D (Chinese sprangletop), rating 0-5: 2 (Herbicidal rate of 20% or more and less than 40%)
Rice flat sedge; 320 g/ha
  herbicidal effect on E (rice flat sedge), rating 0-5: 4 (Herbicidal rate of 70% or more and less than 90%)
Southern crabgrass [2]; AAH 320 g/ha
  F: southern crabgrass, herbicidal effect rating: 0 (Herbicidal rate of 5% or less (almost no effect))
Green foxtail [3]; AAH 320 g/ha
  G: green foxtail, herbicidal effect rating: 0 (Herbicidal rate of 5% or less (almost no effect))
Barnyard grass [4]; AAH 320 g/ha
  H: barnyard grass, herbicidal effect rating: 0 (Herbicidal rate of 5% or less (almost no effect))
Wild oat [5]; AAH 320 g/ha
  I: wild oat, herbicidal effect rating: 0 (Herbicidal rate of 5% or less (almost no effect))
Blackgrass [6]; AAH 320 g/ha
  J: blackgrass, herbicidal effect rating: 0 (Herbicidal rate of 5% or less (almost no effect))
Italian ryegrass [7]; AAH 320 g/ha
  K: Italian ryegrass, herbicidal effect rating: 0 (Herbicidal rate of 5% or less (almost no effect))
Windgrass [8]; AAH 320 g/ha
  L: windgrass, herbicidal effect rating: 0 (Herbicidal rate of 5% or less (almost no effect))
Velvetleaf [9]; AAH 320 g/ha
  M: velvetleaf, herbicidal effect rating: 0 (Herbicidal rate of 5% or less (almost no effect))
Redroot pigweed; AAH 320 g/ha
  N: redroot pigweed, herbicidal effect rating: 0 (Herbicidal rate of 5% or less (almost no effect))
Lambsquarters [10]; AAH 320 g/ha
  O: lambsquarters, herbicidal effect rating: 0 (Herbicidal rate of 5% or less (almost no effect))
chickweed; AAH 320 g/ha
  P: chickweed, herbicidal effect rating: 5 (Herbicidal rate of 90% or more (almost completely withered))
Persian speedwell [11]; AAH 320 g/ha
  R: persian speedwell, herbicidal effect rating: 5 (Herbicidal rate of 90% or more (almost completely withered))
Southern crabgrass [12]
  effect on southern crabgrass (F): 0 (Herbicidal rate of 5% or less (almost no effect))
Green foxtail [13]
  effect on green foxtail (G): 1 (Herbicidal rate of 5% or more and less than 20%)
Barnyard grass [14]
  effect on barnyard grass (H): 0 (Herbicidal rate of 5% or less (almost no effect))
Wild oat [15]
  effect on wild oat (I): 0 (Herbicidal rate of 5% or less (almost no effect))
Blackgrass [16]
  effect on blackgrass (J): 0 (Herbicidal rate of 5% or less (almost no effect))
Italian ryegrass [17]
  effect on Italian ryegrass (K): 0 (Herbicidal rate of 5% or less (almost no effect))
Windgrass [18]
  effect on windgrass (L): 0 (Herbicidal rate of 5% or less (almost no effect))
Velvetleaf [19]
  effect on velvetleaf (M): 3 (Herbicidal rate of 40% or more and less than 70%)
Lambsquarters [20]
  effect on lambsquarters (O): 1 (Herbicidal rate of 5% or more and less than 20%)
Persian speedwell [21]
  effect on persian speedwell (R): 5 (Herbicidal rate of 90% or more (almost completely withered))

## CCCC(=O)Oc1c(C)nn(C)c(=O)c1-c1c(-c2ccc(OC)cc2F)sc2ccc(F)cc12 [2-365]
Barnyard grass [1]
  herbicidal effect on H: barnyard grass: 4 (Herbicidal rate of 70% or more and less than 90%)
Chinese sprangletop
  herbicidal effect on D: Chinese sprangletop: 5 (Herbicidal rate of 90% or more (almost completely withered))
Rice flat sedge
  herbicidal effect on E: rice flat sedge: 5 (Herbicidal rate of 90% or more (almost completely withered))
Southern crabgrass [2]
  herbicidal effect, F: southern crabgrass: 0 (Herbicidal rate of 5% or less (almost no effect))
Green foxtail [3]
  herbicidal effect, G: green foxtail: 0 (Herbicidal rate of 5% or less (almost no effect))
Barnyard grass [4]
  herbicidal effect, H: barnyard grass: 0 (Herbicidal rate of 5% or less (almost no effect))
Wild oat [5]
  herbicidal effect, I: wild oat: 0 (Herbicidal rate of 5% or less (almost no effect))
Blackgrass [6]
  herbicidal effect, J: blackgrass: 0 (Herbicidal rate of 5% or less (almost no effect))
Italian ryegrass [7]
  herbicidal effect, K: Italian ryegrass: 0 (Herbicidal rate of 5% or less (almost no effect))
Windgrass [8]
  herbicidal effect, L: windgrass: 0 (Herbicidal rate of 5% or less (almost no effect))
Velvetleaf [9]
  herbicidal effect, M: velvetleaf: 0 (Herbicidal rate of 5% or less (almost no effect))
Redroot pigweed
  herbicidal effect, N: redroot pigweed: 3 (Herbicidal rate of 40% or more and less than 70%)
Lambsquarters [10]
  herbicidal effect, O: lambsquarters: 1 (Herbicidal rate of 5% or more and less than 20%)
chickweed
  herbicidal effect, P: chickweed: 0 (Herbicidal rate of 5% or less (almost no effect))
Persian speedwell [11]
  herbicidal effect, R: persian speedwell: 0 (Herbicidal rate of 5% or less (almost no effect))

## COc1ccc(F)c(-c2sc3ccc(F)cc3c2-c2c(O)c(C)nn(C)c2=O)c1 [2-366]
Barnyard grass [1]
  herbicidal effect on H: barnyard grass: 3 (Herbicidal rate of 40% or more and less than 70%)
Chinese sprangletop
  herbicidal effect on D: Chinese sprangletop: 0 (Herbicidal rate of 5% or less (almost no effect))
Rice flat sedge
  herbicidal effect on E: rice flat sedge: 3 (Herbicidal rate of 40% or more and less than 70%)
Southern crabgrass [2]
  herbicidal effect, F: southern crabgrass: 3 (Herbicidal rate of 40% or more and less than 70%)
Green foxtail [3]
  herbicidal effect, G: green foxtail: 0 (Herbicidal rate of 5% or less (almost no effect))
Barnyard grass [4]
  herbicidal effect, H: barnyard grass: 0 (Herbicidal rate of 5% or less (almost no effect))
Wild oat [5]
  herbicidal effect, I: wild oat: 0 (Herbicidal rate of 5% or less (almost no effect))
Blackgrass [6]
  herbicidal effect, J: blackgrass: 2 (Herbicidal rate of 20% or more and less than 40%)
Italian ryegrass [7]
  herbicidal effect, K: Italian ryegrass: 4 (Herbicidal rate of 70% or more and less than 90%)
Windgrass [8]
  herbicidal effect, L: windgrass: 0 (Herbicidal rate of 5% or less (almost no effect))
Velvetleaf [9]
  herbicidal effect, M: velvetleaf: 0 (Herbicidal rate of 5% or less (almost no effect))
Redroot pigweed
  herbicidal effect, N: redroot pigweed: 4 (Herbicidal rate of 70% or more and less than 90%)
Lambsquarters [10]
  herbicidal effect, O: lambsquarters: 2 (Herbicidal rate of 20% or more and less than 40%)
chickweed
  herbicidal effect, P: chickweed: 3 (Herbicidal rate of 40% or more and less than 70%)
Persian speedwell [11]
  herbicidal effect, R: persian speedwell: 3 (Herbicidal rate of 40% or more and less than 70%)

## Cc1nn(C)c(=O)c(-c2c(-c3cnccc3F)sc3ccc(F)cc23)c1O [2-383]
Barnyard grass [1]
  herbicidal effect on H: barnyard grass: 5 (Herbicidal rate of 90% or more (almost completely withered))
Chinese sprangletop
  herbicidal effect on D: Chinese sprangletop: 5 (Herbicidal rate of 90% or more (almost completely withered))
Rice flat sedge
  herbicidal effect on E: rice flat sedge: 5 (Herbicidal rate of 90% or more (almost completely withered))
Southern crabgrass [2]
  herbicidal effect, F: southern crabgrass: 4 (Herbicidal rate of 70% or more and less than 90%)
Green foxtail [3]
  herbicidal effect, G: green foxtail: 4 (Herbicidal rate of 70% or more and less than 90%)
Barnyard grass [4]
  herbicidal effect, H: barnyard grass: 3 (Herbicidal rate of 40% or more and less than 70%)
Wild oat [5]
  herbicidal effect, I: wild oat: 3 (Herbicidal rate of 40% or more and less than 70%)
Blackgrass [6]
  herbicidal effect, J: blackgrass: 4 (Herbicidal rate of 70% or more and less than 90%)
Italian ryegrass [7]
  herbicidal effect, K: Italian ryegrass: 4 (Herbicidal rate of 70% or more and less than 90%)
Windgrass [8]
  herbicidal effect, L: windgrass: 3 (Herbicidal rate of 40% or more and less than 70%)
Velvetleaf [9]
  herbicidal effect, M: velvetleaf: 4 (Herbicidal rate of 70% or more and less than 90%)
Redroot pigweed
  herbicidal effect, N: redroot pigweed: 5 (Herbicidal rate of 90% or more (almost completely withered))
Lambsquarters [10]
  herbicidal effect, O: lambsquarters: 4 (Herbicidal rate of 70% or more and less than 90%)
chickweed
  herbicidal effect, P: chickweed: 4 (Herbicidal rate of 70% or more and less than 90%)
Persian speedwell [11]
  herbicidal effect, R: persian speedwell: 5 (Herbicidal rate of 90% or more (almost completely withered))
